Source: patent US20200317716A1, “PREPARATION OF BILE ACIDS AND INTERMEDIATES THEREOF” (ALLERGAN SALES, LLC, priority 2008, published 2020)

What was measured:
Primary human adipocytes = test: MTS cell viability assay on primary human adipocytes; format: cell-based; settings: 0.005%-0.1% bile acid in serum-free media, incubated for 1 hour at 37° C., MTS read at 490 nm, FIG. 1
Experimental: Primary human adipocytes were incubated with varying concentrations of synthetic sodium deoxycholate synthesized using 9-HAD as starting material or bovine-derived sodium deoxycholate obtained from Sigma as described below.
96 well plates (US Scientific cat # cellstar no. 655180) Serum-free RPMI medium (Mediatech cat #17-105-CV) Sodium deoxycholate (DC) (Sigma cat # D6750) Synthetic Sodium glycodeoxycholate (Kythera)
Adipocytes arrived differentiated and at a density of 13,000 cells per well in a 96 well plate. Two plates were received and each treated with the same samples. Cells were incubated for 24 hours at 37° C. with 5% CO2. A 1% stock solution of each bile acid (synthetic and non-synthetic DCA) were made by dissolving 20 mg into 2 mL media (serum-free). Using the 1% stock solution, the following 11 solutions were prepared by dilution: 0.005%, 0.01%, 0.015%, 0.02%, 0.025%, 0.03%, 0.035%, 0.04%, 0.05%, 0.06%, and 0.1%, as well as 0% (media only).
Cells were washed 2× with 150 μL of room temperature 1×PBS (phosphate buffered saline). Media and then PBS were removed from the wells in a 96 well plate by turning the plate upside down and decanting the liquid into a container. After the last PBS wash, 80 μL of sample was added per well. […]
Cell viability was assessed using a colorimetric assay (MTS) kit from Promega.

Compound | melting point | cell survival (Primary human adipocytes)
C[C@]12CCC(=O)C[C@H]1CC[C@H]1[C@@H]3CCC(=O)[C@@]3(C)CC[C@@]12O | 213 to 216 °C | 
C/C=C1/CC[C@H]2[C@@H]3CC[C@@H]4C[C@H](O)CC[C@]4(C)C3=CC[C@]12C | 146 to 147.3 °C | 
C/C=C1/CC[C@H]2[C@@H]3CC[C@@H]4C[C@H](OC(C)=O)CC[C@]4(C)C3=CC[C@]12C | 93.9 to 97.8 °C | 
COC(=O)/C=C/[C@@H](C)C1=CC[C@H]2[C@@H]3CC[C@@H]4C[C@H](OC(C)=O)CC[C@]4(C)C3=CC[C@]12C | 114 to 116 °C | 
COC(=O)CC[C@@H](C)[C@H]1CC[C@H]2[C@@H]3CC[C@@H]4C[C@H](OC(C)=O)CC[C@]4(C)C3=CC[C@]12C | 122.1 to 123.9 °C | 
COC(=O)CC[C@@H](C)[C@H]1CC[C@H]2[C@@H]3CC[C@@H]4C[C@H](OC(C)=O)CC[C@]4(C)[C@H]3CC(=O)[C@]12C | 142.2 to 144.4 °C | 
COC(=O)CC[C@@H](C)[C@H]1CC[C@H]2[C@@H]3CC[C@@H]4C[C@H](OC(C)=O)CC[C@]4(C)[C@H]3C[C@H](O)[C@]12C | 104.2 to 107.7 °C | 
sodium deoxycholate [syn-NaDC] |  | dose-dependent decrease in cell survival
